Among the data in US11332476B2, “Fms-like tyrosine kinase inhibitors” (3SM BIOTRON INC., priority 2018, dated 2022) are IC50 values, retold here.

One may read the IC50 as the concentration at which inhibition is half-maximal. Read a high IC50 as weaker potency.

The assay concerns the target T1, FLT3 (Homo sapiens, UniProt P36888).
T1 sequence (P36888 27-993): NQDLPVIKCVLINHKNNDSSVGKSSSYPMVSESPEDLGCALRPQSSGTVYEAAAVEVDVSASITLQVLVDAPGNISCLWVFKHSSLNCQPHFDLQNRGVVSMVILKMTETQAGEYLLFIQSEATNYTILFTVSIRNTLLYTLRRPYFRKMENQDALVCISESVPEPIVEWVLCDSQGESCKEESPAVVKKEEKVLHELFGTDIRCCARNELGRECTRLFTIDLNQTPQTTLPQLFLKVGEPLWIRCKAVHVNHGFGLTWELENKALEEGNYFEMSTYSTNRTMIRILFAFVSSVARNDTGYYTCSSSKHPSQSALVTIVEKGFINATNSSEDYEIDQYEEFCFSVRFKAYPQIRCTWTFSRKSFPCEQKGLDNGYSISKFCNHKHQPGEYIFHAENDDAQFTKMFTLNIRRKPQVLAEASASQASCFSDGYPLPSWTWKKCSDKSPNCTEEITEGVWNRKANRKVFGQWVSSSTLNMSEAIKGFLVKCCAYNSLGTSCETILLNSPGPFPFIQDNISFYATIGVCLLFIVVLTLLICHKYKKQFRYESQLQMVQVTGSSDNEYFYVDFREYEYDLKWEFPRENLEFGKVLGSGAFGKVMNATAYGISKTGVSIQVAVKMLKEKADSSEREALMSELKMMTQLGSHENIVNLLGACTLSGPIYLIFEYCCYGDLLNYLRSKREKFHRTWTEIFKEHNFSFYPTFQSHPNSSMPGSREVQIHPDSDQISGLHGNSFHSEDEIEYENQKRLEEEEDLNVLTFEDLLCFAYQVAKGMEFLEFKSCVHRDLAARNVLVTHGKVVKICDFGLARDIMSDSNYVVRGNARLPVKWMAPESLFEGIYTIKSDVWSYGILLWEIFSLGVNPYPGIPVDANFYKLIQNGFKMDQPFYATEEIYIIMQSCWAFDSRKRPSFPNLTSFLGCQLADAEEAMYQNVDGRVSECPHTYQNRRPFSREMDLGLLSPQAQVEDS
In words: Inhibition of FLT3, 33P-ATP kinase assay with filter-binding detection. The settings on record: 33P-ATP 10 uM, 2 hours at room temperature, filter-binding method. Type of assay: biochemical. The protocol: Prepare indicated substrate in freshly prepared Base Reaction Buffer (20 mM Hepes (pH 7.5), 10 mM MgCl2, 1 mM EGTA, 0.02% Brij35, 0.02 mg/ml BSA, 0.1 mM Na3VO4, 2 mM DTT, 1% DMSO). Deliver any required cofactors to the substrate solution above. Deliver indicated kinase into the substrate solution and gently mix. The testing compounds in DMSO was added into the kinase reaction mixture by Acoustic technology (Echo550; nanoliter range) and incubated for 20 minutes at room temperature. Deliver 33P-ATP (specific activity […]) into the reaction mixture to initiate the reaction. Incubate kinase reaction for 2 hours at room temperature. Reactions are spotted onto P81 ion exchange paper. Detect kinase activity by filter-binding method.
Inhibition of FLT3 with 4-Quinolone Derivatives

The structures appear in SMILES notation.

Turning to `NCCNc1nc2ccccc2c2c(=O)c3cc(F)cc(Cl)c3sc12` [compound 7248, 6-(2-aminoethylamino)-8-chloro-10-fluoro-12H-thiochromeno[2,3-c]quinolin-12-one], the IC50 lay in the range of 51 to 200 nM.

The compound `O=c1c2cc(Cl)ccc2sc2c(NCCO)nc3ccccc3c12` [compound 7717, 10-chloro-6-(2-hydroxyethylamino)-12H-thiochromeno[2,3-c]quinolin-12-one] registered a half-maximal inhibitory concentration (IC50) of more than 1000 nM. Compound `NCCNc1nc2ccccc2c2c(=O)c3cc(F)cc(F)c3sc12` [compound 7254, 6-(2-aminoethylamino)-8,10-difluoro-12H-thiochromeno[2,3-c]quinolin-12-one] registered an IC50 of 51 to 200 nM. In the case of `CCNc1nc2ccccc2c2c(=O)c3cccc(OC)c3sc12` [compound 7245, 6-(ethylamino)-8-methoxy-12H-thiochromeno[2,3-c]quinolin-12-one] it was more than 1000 nM; in that of `CCCNc1nc2ccccc2c2c(=O)c3ccc(Cl)cc3sc12` [compound 7725, 9-chloro-6-(propylamino)-12H-thiochromeno[2,3-c]quinolin-12-one], more than 1000 nM; in that of `CNCCCNc1nc2ccccc2c2c(=O)c3cc(Cl)ccc3sc12` [compound 7721, 10-chloro-6-(3-(methylamino)propylamino)-12H-thiochromeno[2,3-c]quinolin-12-one], 501 to 1000 nM. In turn, `NCCCNc1nc2ccc(F)cc2c2c(=O)c3cc(F)ccc3sc12` [compound 7402, 6-(3-aminopropylamino)-2,10-difluoro-12H-thiochromeno[2,3-c]quinolin-12-one] yielded a concentration for half-maximal inhibition (IC50) of more than 1000 nM. Then `O=c1c2cc(Cl)ccc2sc2c(OCCO)nc3ccccc3c12` [compound 7718, 10-chloro-6-(2-hydroxyethoxy)-12H-thiochromeno[2,3-c]quinolin-12-one], with more than 1000 nM. Then `O=c1c2cc(F)cc(Cl)c2sc2c(NCCCNCCO)nc3ccccc3c12` [compound 7226, 8-chloro-10-fluoro-6-(3-(2-hydroxyethylamino)propylamino)-12H-thiochromeno[2,3-c]quinolin-12-one], with more than 1000 nM; and `Cc1ccc2sc3c(NCc4ccccc4)nc4ccccc4c3c(=O)c2c1` [compound 7233, 6-(benzylamino)-10-methyl-12H-thiochromeno[2,3-c]quinolin-12-one], with more than 1000 nM. For `CCCNc1nc2ccccc2c2c(=O)c3cc(F)ccc3sc12` [compound 7706, 10-fluoro-6-(propylamino)-12H-thiochromeno[2,3-c]quinolin-12-one], the IC50 was more than 1000 nM.

Regarding `O=c1c2cc(F)ccc2sc2c(-n3ccnc3)nc3ccccc3c12` [compound 7766, 10-fluoro-6-(1H-imidazol-1-yl)-12H-thiochromeno[2,3-c]quinolin-12-one], the IC50 was more than 1000 nM. In the case of `NCCNc1nc2ccccc2c2c(=O)c3cccc(F)c3sc12` [compound 7240, 6-(2-aminoethylamino)-8-fluoro-12H-thiochromeno[2,3-c]quinolin-12-one] it was less than 51 nM; in that of `COc1ccc2sc3c(NCCCN(C)C)nc4ccccc4c3c(=O)c2c1` [compound 7735, 6-(3-(dimethylamino)propylamino)-10-methoxy-12H-thiochromeno[2,3-c]quinolin-12-one], more than 1000 nM; in that of `CN(C)CCCNc1nc2ccccc2c2c(=O)c3cc(F)ccc3sc12` [compound 7732, 6-(3-(dimethylamino)propylamino)-10-fluoro-12H-thiochromeno[2,3-c]quinolin-12-one], more than 1000 nM.

Consider `O=c1c2cc(F)ccc2sc2c(NCCN3CCCC3)nc3ccccc3c12` [compound 7755, 10-fluoro-6-(2-(pyrrolidin-1-yl)ethylamino)-12H-thiochromeno[2,3-c]quinolin-12-one], for which the IC50 lay in the range of 501 to 1000 nM. Then `O=c1c2cccc(F)c2sc2c(NCCCNCCO)nc3ccccc3c12` [compound 7224, 8-fluoro-6-(3-(2-hydroxyethylamino)propylamino)-12H-thiochromeno[2,3-c]quinolin-12-one], with 201 to 500 nM; and `O=c1c2cc(F)ccc2sc2c(N3CCN(Cc4ccccc4)CC3)nc3ccccc3c12` [compound 7758, 6-(4-benzylpiperazin-1-yl)-10-fluoro-12H-thiochromeno[2,3-c]quinolin-12-one], with more than 1000 nM. Then `O=c1c2cc(Cl)ccc2sc2c(NCCCO)nc3ccccc3c12` [compound 7719, 10-chloro-6-(3-hydroxypropylamino)-12H-thiochromeno[2,3-c]quinolin-12-one], with more than 1000 nM; and `COc1cccc2c(=O)c3c(sc12)c(N1CCNCC1)nc1ccccc13` [compound 7247, 8-methoxy-6-(piperazin-1-yl)-12H-thiochromeno[2,3-c]quinolin-12-one], with 51 to 200 nM.

As for `COCCNc1nc2ccccc2c2c(=O)c3cc(F)ccc3sc12` [compound 7745, 10-fluoro-6-(2-methoxyethylamino)-12H-thiochromeno[2,3-c]quinolin-12-one], the IC50 is more than 1000 nM.

For the compound `Cc1ccc2sc3c(NCCCN)nc4ccccc4c3c(=O)c2c1` [compound 7202, 6-(3-aminopropylamino)-10-methyl-12H-thiochromeno[2,3-c]quinolin-12-one], the IC50 fell in the range of 51 to 200 nM. Then `NCCCNc1nc2ccccc2c2c(=O)c3cccc(Cl)c3sc12` [compound 7715, 6-(3-aminopropylamino)-8-chloro-12H-thiochromeno[2,3-c]quinolin-12-one], with less than 51 nM; and `CCCNc1nc2ccccc2c2c(=O)c3cc(Cl)ccc3sc12` [compound 7703, 10-chloro-6-(propylamino)-12H-thiochromeno[2,3-c]quinolin-12-one], with more than 1000 nM. Then `O=c1c2cc(F)ccc2sc2c(NCc3ccccc3)nc3ccc(F)cc3c12` [compound 7424, 6-(benzylamino)-2,10-difluoro-12H-thiochromeno[2,3-c]quinolin-12-one], with more than 1000 nM; and `CNCCCNc1nc2ccccc2c2c(=O)c3cc(OC)ccc3sc12` [compound 7734, 10-methoxy-6-(3-(methylamino)propylamino)-12H-thiochromeno[2,3-c]quinolin-12-one], with 501 to 1000 nM.

For the compound `O=c1c2cc(F)ccc2sc2c(Nc3ccccn3)nc3ccccc3c12` [compound 7760, 10-fluoro-6-(pyridin-2-ylamino)-12H-thiochromeno[2,3-c]quinolin-12-one], the IC50 was more than 1000 nM. Then `O=c1c2cc(F)cc(F)c2sc2c(NCCCNCCO)nc3ccccc3c12` [compound 7253, 8,10-difluoro-6-(3-(2-hydroxyethylamino)propylamino)-12H-thiochromeno[2,3-c]quinolin-12-one], with more than 1000 nM; and `NCCNc1nc2ccc(F)cc2c2c(=O)c3cc(F)ccc3sc12` [compound 7422, 6-(2-aminoethylamino)-2,10-difluoro-12H-thiochromeno[2,3-c]quinolin-12-one], with more than 1000 nM. Compound `COCCCNc1nc2ccccc2c2c(=O)c3cc(OC)ccc3sc12` [compound 7743, 10-methoxy-6-(3-methoxypropylamino)-12H-thiochromeno[2,3-c]quinolin-12-one] showed an IC50 of more than 1000 nM. In the case of `O=c1c2cc(Cl)ccc2sc2c(NCCCNCCO)nc3ccccc3c12` [compound 7701, 10-chloro-6-(3-(2-hydroxyethylamino)propylamino)-12H-thiochromeno[2,3-c]quinolin-12-one] it was more than 1000 nM. Then `O=c1c2cc(F)ccc2sc2c(NCCNc3ccccn3)nc3ccccc3c12` [compound 7765, 10-fluoro-6-((2-(pyridin-2-ylamino)ethyl)amino)-12H-thiochromeno[2,3-c]quinolin-12-one], with more than 1000 nM; and `NCCCNc1nc2ccccc2c2c(=O)c3cc(Cl)ccc3sc12` [compound 7704, 6-(3-aminopropylamino)-10-chloro-12H-thiochromeno[2,3-c]quinolin-12-one], with 501 to 1000 nM; and `COCCCNc1nc2ccccc2c2c(=O)c3cc(F)ccc3sc12` [compound 7730, 10-fluoro-6-(3-methoxypropylamino)-12H-thiochromeno[2,3-c]quinolin-12-one], with more than 1000 nM.
